The results in this text go back to ChEMBL document CHEMBL1201862, “PubChem BioAssay data set” (2004).

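In this assay, cells in 96-well plates receive the compound at five concentrations for 48 hours. Endpoints are linearly interpolated between the surrounding concentrations. GI50 is the concentration that inhibits growth by half.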 Activity calls are given as the source filed them. No stated cut-off is given here; in the data, active = GI50 up to about 1.1 µM and inactive = higher.

Among the test systems are HL-60; 786-0; BT-549; OVCAR-4; SNB-75; IGROV-1; EKVX; OVCAR-3; HOP-62; K562; CAKI-1; SK-MEL-2; A549; MCF7; KM12; UO-31; OVCAR-8; MDA-MB-435; MDA-MB-231; NCI-H23.
Common to all, as to assay: NCI anticancer screen, dose series, 48 h

As to `Cc1cc2nc3ccc(N(C)C)cc3[s+]c2cc1N` [TOLONIUM CHLORIDE], the GI50 was 0.383 µM (active) in the test with HL-60; 5.22 µM (inactive) with 786-0; 11.7 µM (inactive) with BT-549; 3.35 µM (inactive) in the test with OVCAR-4; 11 µM (inactive) in the test with SNB-75; 6.22 µM (inactive) in the test with IGROV-1. The GI50 with EKVX was 4.48 µM (inactive); in the test on OVCAR-3, 0.995 µM (active); with HOP-62, 8.97 µM (inactive); in the test with K562, 2.22 µM (inactive); in the test with CAKI-1, 23.5 µM (inactive); in the test on SK-MEL-2, 3.5 µM (inactive). For the same compound, the GI50 is 3.22 µM (inactive) with A549; 2.3 µM (inactive) with MCF7; 3.84 µM (inactive) in the test with KM12; 11 µM (inactive) in the test on UO-31; 2.16 µM (inactive) with OVCAR-8; 0.977 µM (active) with MDA-MB-435. Moreover, the GI50 in the test with MDA-MB-231 is 2.41 µM (inactive); in the test with NCI-H23 it was 2.21 µM (inactive).

Consider `CC(=O)O[C@H]1CC2C(C3CCC(C(C)CCC(N)=O)[C@]31C)[C@H](OC(C)=O)C[C@@H]1CC3(CC[C@]21C)OOC1(CC[C@]2(C)C4C[C@H](OC(C)=O)[C@]5(C)C(C(C)CCC(N)=O)CCC5C4[C@H](OC(C)=O)C[C@@H]2C1)OO3` (stereo partly specified), for which the GI50 was 1.45 µM (inactive) in the test with HL-60; 1.55 µM (inactive) in the test on 786-0; 1.2 µM (inactive) in the test with BT-549; 1.83 µM (inactive) in the test with OVCAR-4; 1.56 µM (inactive) in the test on SNB-75; 1.69 µM (inactive) with IGROV-1. For the same compound, the GI50 in the test on EKVX was 1.67 µM (inactive); in the test on OVCAR-3, 1.42 µM (inactive); in the test on HOP-62, 2.01 µM (inactive); in the test on K562, 1.76 µM (inactive); in the test on CAKI-1, 1.88 µM (inactive); in the test on SK-MEL-2, 1.84 µM (inactive). The GI50 in the test with A549 is 1.43 µM (inactive); in the test with MCF7 it was 1.58 µM (inactive); with KM12, 1.66 µM (inactive); in the test with UO-31, 1.13 µM (inactive); in the test on OVCAR-8 it was 1.55 µM (inactive); in the test with MDA-MB-435, 1.4 µM (inactive). Besides, the GI50 in the test with MDA-MB-231 was 1.51 µM (inactive); in the test with NCI-H23, 1.49 µM (inactive).

Regarding `c1ccc2c3c(c(N4CCOCC4)nc2c1)CCCC3`, the GI50 in the test with HL-60 was 14.2 µM (inactive); in the test with 786-0, 32.8 µM (inactive); in the test with BT-549 it was 39.7 µM (inactive); in the test with OVCAR-4, 49.9 µM (inactive); with SNB-75 it was 15.4 µM (inactive); in the test with IGROV-1, > 100 µM (inactive). Also, the GI50 in the test with EKVX is 12.5 µM (inactive); in the test with OVCAR-3, 36.6 µM (inactive); in the test on HOP-62, 92.5 µM (inactive); with K562 it was 49.8 µM (inactive); in the test with CAKI-1, 64.7 µM (inactive); with SK-MEL-2 it was 42.8 µM (inactive). The GI50 with A549 is 43.1 µM (inactive); in the test on MCF7 it was 29.5 µM (inactive); with KM12 it was 38.2 µM (inactive); in the test with UO-31, 41.2 µM (inactive); in the test with OVCAR-8, 57.5 µM (inactive); in the test with MDA-MB-435, 48.6 µM (inactive). Besides, the GI50 in the test with MDA-MB-231 was 32.1 µM (inactive); in the test with NCI-H23, 56.5 µM (inactive).

As for `CCCCCCn1c(SC)nc(COC(=O)NC)c1COC(=O)NC`, the GI50 was 19.6 µM (inactive) with HL-60; 15.3 µM (inactive) in the test with 786-0; 19.5 µM (inactive) with BT-549; 9.57 µM (inactive) with OVCAR-4; 14.6 µM (inactive) in the test with SNB-75; 15.3 µM (inactive) in the test on IGROV-1. The GI50 with EKVX was 13.9 µM (inactive); in the test with OVCAR-3, 17.9 µM (inactive); in the test with HOP-62 it was 19.6 µM (inactive); in the test with K562, 19.3 µM (inactive); in the test with CAKI-1 it was 15.7 µM (inactive); in the test with SK-MEL-2, 25.8 µM (inactive). The GI50 with A549 is 16.4 µM (inactive); with MCF7, 20.1 µM (inactive); with KM12 it was 18.2 µM (inactive); in the test with UO-31, 16.9 µM (inactive); with OVCAR-8, 17.4 µM (inactive); in the test on MDA-MB-435, 19.7 µM (inactive). The GI50 with MDA-MB-231 was 17.6 µM (inactive); in the test on NCI-H23, 21.2 µM (inactive).

In the case of `O=C(O[C@H]1[C@@H](O)[C@H](n2cnc3c(Cl)ncnc32)O[C@@H]1COC(c1ccccc1)(c1ccccc1)c1ccccc1)c1ccccc1`, the GI50 in the test on HL-60 was 9.91 µM (inactive); in the test with 786-0, 14.9 µM (inactive); in the test on BT-549 it was 18.2 µM (inactive); in the test on OVCAR-4, 30.3 µM (inactive); in the test on SNB-75 it was 45.4 µM (inactive); with IGROV-1, 15.9 µM (inactive). The GI50 in the test with EKVX is 14.8 µM (inactive); in the test on OVCAR-3, 14.2 µM (inactive); in the test with HOP-62 it was 16.7 µM (inactive); with K562 it was 3.6 µM (inactive); in the test with CAKI-1, 2.62 µM (inactive); in the test with SK-MEL-2, 21.2 µM (inactive). Also, the GI50 in the test on A549 is 56.1 µM (inactive); in the test with MCF7, 4.91 µM (inactive); in the test on KM12, 16.1 µM (inactive); in the test on UO-31 it was 1.27 µM (inactive); in the test with OVCAR-8 it was 25.4 µM (inactive); in the test on MDA-MB-435 it was 26.8 µM (inactive). Further, the GI50 was 21.2 µM (inactive) with MDA-MB-231 and 20.4 µM (inactive) with NCI-H23.

For `CCSCCCC(=O)O`, the GI50 with HL-60, with 786-0, with BT-549, with OVCAR-4, with SNB-75 and in the test on IGROV-1 was > 100 µM (inactive) throughout. The GI50 with EKVX, in the test on OVCAR-3, with HOP-62, with K562, in the test with CAKI-1 and with SK-MEL-2 was > 100 µM (inactive) in each case. In addition, the GI50 with A549, in the test with MCF7, in the test with KM12, in the test on UO-31, with OVCAR-8 and in the test with MDA-MB-435 was > 100 µM (inactive) in each case. The GI50 with MDA-MB-231 and with NCI-H23 was > 100 µM (inactive) each time.

As to `COc1ccc2nc(C)cc(NCCCCCCCCCNc3cc(C)nc4ccc(OC)cc34)c2c1`, the GI50 with HL-60 was 0.824 µM (active); in the test with 786-0 it was 1.03 µM (active); in the test on BT-549 it was 8.95 µM (inactive); with OVCAR-4, 2.19 µM (inactive); with SNB-75, 4.14 µM (inactive); in the test with IGROV-1 it was 2.99 µM (inactive). The GI50 in the test on EKVX was 3.4 µM (inactive); in the test with OVCAR-3, 1.24 µM (inactive); in the test with HOP-62, 2.26 µM (inactive); in the test with K562, 0.264 µM (active); with CAKI-1, 6.67 µM (inactive); in the test on SK-MEL-2, 3.79 µM (inactive). The GI50 in the test with A549 was 1.5 µM (inactive); in the test with MCF7, 1.21 µM (inactive); in the test on KM12, 1.26 µM (inactive); in the test on UO-31, 13.6 µM (inactive); in the test with OVCAR-8 it was 0.527 µM (active); with MDA-MB-435, 1.58 µM (inactive). Further, the GI50 is 1.27 µM (inactive) in the test on MDA-MB-231 and 1.73 µM (inactive) with NCI-H23.

As to `COc1ccc(C(C)NNC(=O)c2cc[n+]([BH2-]C#N)cc2)c(OC)c1` (stereo unspecified), the GI50 with HL-60 is > 100 µM (inactive); in the test on 786-0, > 100 µM (inactive); with BT-549 it was > 100 µM (inactive); in the test with OVCAR-4 it was 69.5 µM (inactive); with SNB-75 it was > 100 µM (inactive); in the test on IGROV-1 it was > 100 µM (inactive). Moreover, the GI50 in the test on EKVX, in the test with OVCAR-3, in the test with K562, in the test with CAKI-1, with SK-MEL-2 and with A549 was > 100 µM (inactive) each time. For the same compound, the GI50 in the test with MCF7, with KM12, with UO-31, in the test with OVCAR-8, in the test with MDA-MB-435 and in the test on MDA-MB-231 was > 100 µM (inactive) throughout.

With `O=C(c1ccc(Cl)cc1Cl)N(Cc1cccnc1)C(=S)N(Cc1cccnc1)C(=O)c1ccc(Cl)cc1Cl`, the GI50 with HL-60 is 3.55 µM (inactive); in the test on 786-0 it was 2.12 µM (inactive); in the test with BT-549, 3.72 µM (inactive); in the test on OVCAR-4 it was 2.72 µM (inactive); with SNB-75, 4.07 µM (inactive); with EKVX, 15.7 µM (inactive). The GI50 in the test with OVCAR-3 is 2.67 µM (inactive); with HOP-62 it was 2.37 µM (inactive); in the test with K562 it was 3.52 µM (inactive); in the test on CAKI-1 it was 11.6 µM (inactive); with SK-MEL-2, 3.58 µM (inactive); in the test with A549 it was 19 µM (inactive). Further, the GI50 is 2.58 µM (inactive) with MCF7; 2.96 µM (inactive) in the test on KM12; 4.26 µM (inactive) in the test on UO-31; 3.35 µM (inactive) with OVCAR-8; 17.7 µM (inactive) in the test with MDA-MB-435; 2.75 µM (inactive) in the test with MDA-MB-231. In the test with NCI-H23, the GI50 was 12.2 µM (inactive).

Consider `COC(=O)c1cc2/c(=N/O)c3ccccc3sc2o1`, for which the GI50 with HL-60, in the test on 786-0, in the test with BT-549, in the test with OVCAR-4, in the test with SNB-75 and in the test with IGROV-1 was > 100 µM (inactive) each time. For the same compound, the GI50 in the test with EKVX, in the test on OVCAR-3, in the test on HOP-62, in the test with K562, with CAKI-1 and with SK-MEL-2 was > 100 µM (inactive) in each case. Besides, the GI50 with A549, in the test with MCF7, in the test on KM12, in the test with OVCAR-8, in the test on MDA-MB-435 and in the test with MDA-MB-231 was > 100 µM (inactive) in each case. Besides, the GI50 with NCI-H23 was > 100 µM (inactive).
